Measurements: patent US8399502B2, “Analogs of indole-3-carbinol and their use as agents against infection” (priority 2008, dated 2013)
≈ marks a conversion by molar mass, not a printed value.

Columns and labels:
Format in all cases: cell-based
[1] = system: Francisella tularensis (FT; Gram-negative); assay: microbe, parasite or virus in culture; conditions: read-out: MIC FT
[2] = system: Bacillus anthracis (BA; Gram-positive); assay: microbe, parasite or virus in culture; conditions: read-out: MIC BA
[3] = system: methicillin-susceptible Staphylococcus aureus (MSSA); assay: microbe, parasite or virus in culture; conditions: read-out: MIC MSSA
[4] = system: methicillin-resistant Staphylococcus aureus (MRSA); assay: microbe, parasite or virus in culture; conditions: read-out: MIC MRSA
[5] = system: penicillin-susceptible S. pneumoniae (PSSP); assay: microbe, parasite or virus in culture; conditions: Streptococcus pneumoniae, read-out: MIC PSSP
[6] = system: penicillin-resistant S. pneumoniae (PRSP); assay: microbe, parasite or virus in culture; conditions: Streptococcus pneumoniae, read-out: MIC PRSP
[7] = system: Acinetobacter baumannii (AB); assay: MIC determination; conditions: Table 3
[8] = system: Listeria monocytogenes (LM); assay: MIC determination; conditions: Table 3
[9] = system: Shigella dysenteriae (SD); assay: MIC determination; conditions: Table 3
[10] = system: Vancomycin-resistant Enterococcus faecalis (VRE); assay: MIC determination; conditions: Table 3
[11] = system: Vancomycin-Sensitive Enterococcus faecalis (VSE); assay: MIC determination; conditions: Table 3
[12] = system: Mycobacteruim tuberculosis H37Rv (H37Rv); assay: microbe, parasite or virus in culture; conditions: Mycobacterium tuberculosis, read-out: MIC against Tubercle bacillus

Compound	MIC [7]	MIC [8]	MIC [9]	MIC [10]	MIC [11]	MIC [12]	also measured
Cc1c2[nH]c3ccccc3c2cc2c1[nH]c1ccccc12 [drawing 263]	–	–	–	–	–	–	MIC [1]: ≤ 0.5 µg/mL; MIC [2]: 1 µg/mL (≈ 3.7 µM); MIC [3]: 2 µg/mL (≈ 7.4 µM); MIC [4]: 4 µg/mL (≈ 14.8 µM); MIC [5]: 1 µg/mL (≈ 3.7 µM); MIC [6]: 1 µg/mL (≈ 3.7 µM)
CN(C)CCOc1c2[nH]c3ccc(F)cc3c2cc2c1[nH]c1ccc(F)cc12 [drawing 265]	4 µg/mL (≈ 10.5 µM)	2 µg/mL (≈ 5.27 µM)	8 µg/mL (≈ 21.1 µM)	2 µg/mL (≈ 5.27 µM)	1 µg/mL (≈ 2.64 µM)	–	–
N=C(N)NCCCOc1c2[nH]c3ccc(Cl)cc3c2cc2c1[nH]c1ccc(Cl)cc12 [drawing 266]	4 µg/mL (≈ 9.08 µM)	1 µg/mL (≈ 2.27 µM)	4 µg/mL (≈ 9.08 µM)	2 µg/mL (≈ 4.54 µM)	4 µg/mL (≈ 9.08 µM)	–	–
OC1CCN(CCCOc2c3[nH]c4ccc(Cl)cc4c3cc3c2[nH]c2ccc(Cl)cc23)CC1 [drawing 267]	4 µg/mL (≈ 8.29 µM)	1 µg/mL (≈ 2.07 µM)	8 µg/mL (≈ 16.6 µM)	2 µg/mL (≈ 4.15 µM)	4 µg/mL (≈ 8.29 µM)	–	–
N=C(N)NCCCOc1c2[nH]c3ccc(F)cc3c2cc2c1[nH]c1ccc(F)cc12 [drawing 268]	8 µg/mL (≈ 19.6 µM)	4 µg/mL (≈ 9.82 µM)	8 µg/mL (≈ 19.6 µM)	2 µg/mL (≈ 4.91 µM)	8 µg/mL (≈ 19.6 µM)	–	–
Fc1ccc2[nH]c3c(O[C@@H]4CCNC4)c4[nH]c5ccc(F)cc5c4cc3c2c1 [drawing 269]	4 µg/mL (≈ 10.6 µM)	2 µg/mL (≈ 5.3 µM)	4 µg/mL (≈ 10.6 µM)	1 µg/mL (≈ 2.65 µM)	2 µg/mL (≈ 5.3 µM)	–	–
Fc1ccc2[nH]c3c(OCCCNC4=NCCN4)c4[nH]c5ccc(F)cc5c4cc3c2c1 [drawing 270]	4 µg/mL (≈ 9.23 µM)	2 µg/mL (≈ 4.61 µM)	8 µg/mL (≈ 18.5 µM)	1 µg/mL (≈ 2.31 µM)	4 µg/mL (≈ 9.23 µM)	–	–
COc1c2[nH]c3ccc(F)cc3c2cc2c1[nH]c1ccc(F)cc12 [drawing 271]	–	–	–	–	–	> 10 µg/mL	–
CN(C)CCOc1c2[nH]c3ccc(F)cc3c2cc2c1[nH]c1ccc(F)cc12 [drawing 272]	–	–	–	–	–	5 µg/mL (≈ 13.2 µM)	–
CN(C)CC#Cc1c2[nH]c3ccc(F)cc3c2cc2c1[nH]c1ccc(F)cc12 [drawing 273]	–	–	–	–	–	10 µg/mL (≈ 26.8 µM)	–
N=C(N)NCCCOc1c2[nH]c3ccc(Cl)cc3c2cc2c1[nH]c1ccc(Cl)cc12 [drawing 274]	–	–	–	–	–	10 µg/mL (≈ 22.7 µM)	–
OC1CCN(CCCOc2c3[nH]c4ccc(Cl)cc4c3cc3c2[nH]c2ccc(Cl)cc23)CC1 [drawing 275]	–	–	–	–	–	10 µg/mL (≈ 20.7 µM)	–
Fc1ccc2[nH]c3c(OCCCn4cncn4)c4[nH]c5ccc(F)cc5c4cc3c2c1 [drawing 276]	–	–	–	–	–	> 10 µg/mL	–
N=C(N)NCCCOc1c2[nH]c3ccc(F)cc3c2cc2c1[nH]c1ccc(F)cc12 [drawing 277]	–	–	–	–	–	10 µg/mL (≈ 24.5 µM)	–
Fc1ccc2[nH]c3c(OCCCNC4=NCCN4)c4[nH]c5ccc(F)cc5c4cc3c2c1 [drawing 278]	–	–	–	–	–	10 µg/mL (≈ 23.1 µM)	–
Fc1ccc2[nH]c3c(O[C@@H]4CCNC4)c4[nH]c5ccc(F)cc5c4cc3c2c1 [drawing 279]	–	–	–	–	–	10 µg/mL (≈ 26.5 µM)	–
Fc1ccc2[nH]c3c(O[C@H]4CCNC4)c4[nH]c5ccc(F)cc5c4cc3c2c1 [drawing 280]	–	–	–	–	–	5 µg/mL (≈ 13.2 µM)	–
Cc1c2[nH]c3ccccc3c2cc2c1[nH]c1ccccc12 [drawing 281]	–	–	–	–	–	10 µg/mL (≈ 37 µM)	–
